Experimental data taken from US20140155406A1, “4-IMIDAZOPYRIDAZIN-1-YL-BENZAMIDES AND 4-IMIDAZOTRIAZIN-1-YL-BENZAMIDES BTK INHIBITORS” (priority 2011, published 2014).

Legend:
Format in all cases: biochemical
[1] = target: T1, Lck enzyme (Homo sapiens, UniProt P06239); assay: Lck enzyme activity, IMAP fluorescence polarization assay; conditions: 60 min pre-incubation, 6 μM ATP (Km)
T1 construct: purchased Millipore 14-442
Method: Lck enzyme activity is measured using the IMAP (immobilized metal ion affinity-based fluorescence polarization) assay as outlined below.
Lck enzyme (Millipore catalog#14-442), is diluted to 0.4 U/mL in KR buffer (10 mM Tris-HCl, 10 mM MgCl2, 0.01% Tween-20, 0.05% NaN3, 1 mM DTT, 2 mM MnCl2, pH 7.2). Serial dilution log 10 from 2 mM to 63.2 nM of test compounds are made in 100% DMSO. The dilutions in DMSO are then diluted 50-fold in KR-buffer of which 5 μl is used in the assay, leading to a final compound concentration range in the assay from 10 μM to 0.316 nM. 5 μL/well of test compound in KR buffer (final DMSO concentration in the assay is 1%) is mixed with 5 μl/well of 0.4 U/mL Lck enzyme (final concentration in the assay is 0.1 U/mL). Test compounds and Lck enzyme are pre-incubated 60 minutes at room temperature, before adding 5 μL/well of 400 nM Fluorescin labeled substrate peptide (p34cdc2 substrate peptide, e.g. #R7157/#R7172, Molecular Devices) in KR-buffer. Final peptide substrate concentration in assay is 100 nM. The kinase assay is started by adding 5 μL/well of 24 μM ATP in KR-buffer (final ATP concentration is 6 μM ATP, Km ATP in Lck IMAP assay). Following incubation for 2 h at room temperature the enzyme reaction is stopped by adding 40 μL/well IMAP Progressive Binding Solution (according to suppliers (Molecular Devices) protocol using 75% 1× buffer A and 25% 1× buffer B with 1:600 Progressive Binding Solution). After 60 min incubation at room temperature in the dark the FP signal is read. Fluorescence at 535 nm is measured using parallel and perpendicular filters to determine differences in rotation due to binding of the phosphorylated substrate peptide to the beads. Values are calculated as percentage of the difference in readout (ΔmPi) of the controls with and without ATP. EC50 values are determined by curve fitting of the experimental results using Activity Base.

[2] = target: T2, Src enzyme (Homo sapiens, UniProt P12931); assay: Src enzyme activity, IMAP fluorescence polarization assay; conditions: 60 min pre-incubation, 4 μM ATP (Km)
T2 construct: purchased Millipore 14-326
T2 sequence (P12931 whole entry): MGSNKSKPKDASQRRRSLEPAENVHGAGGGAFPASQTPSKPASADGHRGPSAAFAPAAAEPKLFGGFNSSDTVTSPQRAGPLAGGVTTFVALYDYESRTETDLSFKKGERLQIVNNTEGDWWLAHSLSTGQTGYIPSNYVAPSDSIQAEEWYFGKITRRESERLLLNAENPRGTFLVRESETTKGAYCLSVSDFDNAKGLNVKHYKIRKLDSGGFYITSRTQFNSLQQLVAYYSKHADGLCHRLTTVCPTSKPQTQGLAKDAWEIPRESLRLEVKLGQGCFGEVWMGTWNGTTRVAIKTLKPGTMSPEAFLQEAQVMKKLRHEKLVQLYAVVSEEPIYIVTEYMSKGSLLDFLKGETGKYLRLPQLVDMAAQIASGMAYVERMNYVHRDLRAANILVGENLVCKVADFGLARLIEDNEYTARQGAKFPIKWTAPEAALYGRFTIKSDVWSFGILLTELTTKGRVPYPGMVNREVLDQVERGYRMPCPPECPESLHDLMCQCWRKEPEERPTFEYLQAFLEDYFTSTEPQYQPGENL
Method: Src enzyme activity is measured using the IMAP (immobilized metal ion affinity-based fluorescence polarization) assay as outlined below.
Src enzyme (Millipore catalog#14-326), is diluted to 0.8 U/mL in KR buffer (10 mM Tris-HCl, 10 mM MgCl2, 0.01% Tween-20, 0.05% NaN3, 1 mM DTT, 2 mM MnCl2, pH 7.2).
Serial dilution log 10 from 2 mM to 63.2 nM of test compounds are made in 100% DMSO. The dilutions in DMSO are then diluted 50-fold in KR-buffer of which 5 μl is used in the assay, leading to a final compound concentration range in the assay from 10 μM to 0.316 nM. 5 μL/well of test compound in KR buffer (final DMSO concentration in the assay is 1%) is mixed with 5 μl/well of 0.8 U/mL Src enzyme (final concentration in the assay is 0.2 U/mL). Test compounds and Src enzyme are pre-incubated 60 minutes at room temperature, before adding 5 μL/well of 400 nM Fluorescin labeled substrate peptide (p34cdc2 substrate peptide, e.g. #R7157/#R7172, Molecular Devices) in KR-buffer. Final peptide substrate concentration in assay is 100 nM. The kinase assay is started by adding 5 μL/well of 16 μM ATP in KR-buffer (final ATP concentration is 4 μM ATP, Km ATP in Src IMAP assay). Following incubation for 2 h at room temperature the enzyme reaction is stopped by adding 40 μL/well IMAP Progressive Binding Solution (according to suppliers (Molecular Devices) protocol using 75% 1× buffer A and 25% 1× buffer B with 1:600 Progressive Binding Solution). After 60 min incubation at room temperature in the dark the FP signal is read. Fluorescence at 535 nm is measured using parallel and perpendicular filters to determine differences in rotation due to binding of the phosphorylated substrate peptide to the beads. Values are calculated as percentage of the difference in readout (ΔmPi) of the controls with and without ATP. EC50 values are determined by curve fitting of the experimental results using Activity Base.

[3] = target: T3, FynT enzyme (Homo sapiens, UniProt P06241); assay: FynT enzyme activity, IMAP fluorescence polarization assay; conditions: 60 min pre-incubation, 0.2 μM ATP (Km)
T3 construct: purchased Biomol SE-287
T3 sequence (P06241 1-534 isoform P06241-2): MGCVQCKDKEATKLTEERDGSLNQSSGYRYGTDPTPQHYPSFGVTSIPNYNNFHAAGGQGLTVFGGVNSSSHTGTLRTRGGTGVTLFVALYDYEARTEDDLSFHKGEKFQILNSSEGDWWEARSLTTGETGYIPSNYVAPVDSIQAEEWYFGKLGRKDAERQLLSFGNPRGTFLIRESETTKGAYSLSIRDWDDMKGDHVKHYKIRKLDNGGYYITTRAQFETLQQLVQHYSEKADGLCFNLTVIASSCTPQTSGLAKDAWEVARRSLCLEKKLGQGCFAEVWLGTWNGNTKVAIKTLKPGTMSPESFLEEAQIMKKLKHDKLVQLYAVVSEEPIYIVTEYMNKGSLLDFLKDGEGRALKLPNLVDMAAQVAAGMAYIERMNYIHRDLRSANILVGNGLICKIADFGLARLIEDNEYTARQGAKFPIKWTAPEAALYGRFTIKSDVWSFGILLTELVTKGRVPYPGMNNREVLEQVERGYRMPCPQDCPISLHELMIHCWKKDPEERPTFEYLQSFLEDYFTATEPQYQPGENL
Method: FynT enzyme activity is measured using the IMAP (immobilized metal ion affinity-based fluorescence polarization) assay as outlined below.
FynT enzyme (Biomol catalog# SE-287), is diluted to 0.5 μg/mL in KR buffer (10 mM Tris-HCl, 10 mM MgCl2, 0.01% Tween-20, 0.05% NaN3, 1 mM DTT, 2 mM MnCl2, pH 7.2). Serial dilution log 10 from 2 mM to 63.2 nM of test compounds are made in 100% DMSO. The dilutions in DMSO are then diluted 50-fold in KR-buffer of which 5 μl is used in the assay, leading to a final compound concentration range in the assay from 10 μM to 0.316 nM. 5 μL/well of test compound in KR buffer (final DMSO concentration in the assay is 1%) is mixed with 5 μl/well of 0.5 μg/mL FynT enzyme (final concentration in the assay is 125 ng/mL). Test compounds and FynT enzyme are pre-incubated 60 minutes at room temperature, before adding 5 μL/well of 400 nM Fluorescin labeled substrate peptide (p34cdc2 substrate peptide, e.g. #R7157/#R7172, Molecular Devices) in KR-buffer. Final peptide substrate concentration in assay is 100 nM. The kinase assay is started by adding 5 μL/well of 0.8 μM ATP in KR-buffer (final ATP concentration is 0.2 μM ATP, Km ATP in FynT IMAP assay). Following incubation for 2 h at room temperature the enzyme reaction is stopped by adding 40 μL/well IMAP Progressive Binding Solution (according to suppliers (Molecular Devices) protocol using 75% 1× buffer A and 25% 1× buffer B with 1:600 Progressive Binding Solution). After 60 min incubation at room temperature in the dark the FP signal is read. Fluorescence at 535 nm is measured using parallel and perpendicular filters to determine differences in rotation due to binding of the phosphorylated substrate peptide to the beads. Values are calculated as percentage of the difference in readout (ΔmPi) of the controls with and without ATP. EC50 values are determined by curve fitting of the experimental results using Activity Base.

[4] = target: T4, Lyn enzyme (Homo sapiens, UniProt P07948); assay: Lyn enzyme activity, IMAP fluorescence polarization assay; conditions: 60 min pre-incubation, 2 μM ATP (Km)
T4 construct: purchased Millipore 14-510
T4 sequence (P07948 whole entry): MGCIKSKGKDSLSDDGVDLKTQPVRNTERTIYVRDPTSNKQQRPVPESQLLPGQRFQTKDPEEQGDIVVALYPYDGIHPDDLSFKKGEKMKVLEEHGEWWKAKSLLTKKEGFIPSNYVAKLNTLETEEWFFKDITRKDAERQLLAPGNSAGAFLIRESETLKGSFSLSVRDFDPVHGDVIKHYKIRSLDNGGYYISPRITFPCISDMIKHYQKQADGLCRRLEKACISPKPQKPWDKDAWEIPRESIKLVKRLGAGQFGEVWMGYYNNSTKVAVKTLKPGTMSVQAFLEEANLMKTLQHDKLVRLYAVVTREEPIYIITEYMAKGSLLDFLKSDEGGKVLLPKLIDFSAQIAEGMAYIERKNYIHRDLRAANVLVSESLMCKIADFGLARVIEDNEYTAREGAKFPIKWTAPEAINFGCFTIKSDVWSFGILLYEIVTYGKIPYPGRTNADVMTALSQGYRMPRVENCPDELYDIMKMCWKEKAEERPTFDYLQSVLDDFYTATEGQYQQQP
Method: Lyn enzyme activity is measured using the IMAP (immobilized metal ion affinity-based fluorescence polarization) assay as outlined below.
Lyn enzyme (Millipore catalog#14-510), is diluted to 250 mU/mL in KR buffer (10 mM Tris-HCl, 10 mM MgCl2, 0.01% Tween-20, 0.05% NaN3, 1 mM DTT, 2 mM MnCl2, pH 7.2). Serial dilution log 10 from 2 mM to 63.2 nM of test compounds are made in 100% DMSO. The dilutions in DMSO are then diluted 50-fold in KR-buffer of which 5 μl is used in the assay, leading to a final compound concentration range in the assay from 10 μM to 0.316 nM. 5 μL/well of test compound in KR buffer (final DMSO concentration in the assay is 1%) is mixed with 5 μl/well of 250 mU/mL Lyn enzyme (final concentration in the assay is 62.5 mU/mL). Test compounds and Lyn enzyme are pre-incubated 60 minutes at room temperature, before adding 5 μL/well of 400 nM Fluorescin labeled substrate peptide (Blk/Lyntide substrate, e.g. #R7188/#R7233, Molecular Devices) in KR-buffer. Final peptide substrate concentration in assay is 100 nM. The kinase assay is started by adding 5 μL/well of 8 μM ATP in KR-buffer (final ATP concentration is 2 μM ATP, Km ATP in Lyn IMAP assay). Following incubation for 2 h at room temperature the enzyme reaction is stopped by adding 40 μL/well IMAP Progressive Binding Solution (according to suppliers (Molecular Devices) protocol using 75% 1× buffer A and 25% 1× buffer B with 1:600 Progressive Binding Solution). After 60 min incubation at room temperature in the dark the FP signal is read. Fluorescence at 535 nm is measured using parallel and perpendicular filters to determine differences in rotation due to binding of the phosphorylated substrate peptide to the beads. Values are calculated as percentage of the difference in readout (ΔmPi) of the controls with and without ATP. EC50 values are determined by curve fitting of the experimental results using Activity Base.

Measured: EC50

T1 sequence (P06239 whole entry): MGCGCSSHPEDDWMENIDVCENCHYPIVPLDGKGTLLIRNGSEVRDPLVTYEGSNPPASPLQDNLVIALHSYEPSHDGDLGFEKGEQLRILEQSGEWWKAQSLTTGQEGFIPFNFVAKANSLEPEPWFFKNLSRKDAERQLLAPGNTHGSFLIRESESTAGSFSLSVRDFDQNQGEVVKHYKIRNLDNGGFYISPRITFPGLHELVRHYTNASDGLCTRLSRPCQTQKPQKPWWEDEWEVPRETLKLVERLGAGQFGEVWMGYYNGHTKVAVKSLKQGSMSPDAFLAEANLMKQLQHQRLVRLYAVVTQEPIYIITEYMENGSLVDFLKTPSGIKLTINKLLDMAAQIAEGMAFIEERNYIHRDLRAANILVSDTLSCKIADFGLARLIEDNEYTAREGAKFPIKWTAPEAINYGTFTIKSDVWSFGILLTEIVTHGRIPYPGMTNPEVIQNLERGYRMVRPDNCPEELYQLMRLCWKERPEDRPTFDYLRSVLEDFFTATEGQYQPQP

CC#CC(=O)N1CCC[C@H]1c1nc(-c2ccc(C(=O)Nc3cc(C#N)ccn3)cc2)c2c(C)nccn12 [Example 32, (S)-4-(3-(1-but-2-ynoylpyrrolidin-2-yl)-8-methylimidazo[1,5-a]pyrazin-1-yl)-N-(4-cyanopyridin-2-yl)benzamide]
≥ 1000 nM: all assays above

C=CC(=O)N1CCC[C@H]1c1nc(-c2ccc(C(=O)Nc3cc(C)ccn3)cc2)c2c(C)nccn12 [Example 11, (S)-4-(3-(1-Acryloylpyrrolidin-2-yl)-8-methylimidazo[1,5-a]pyrazin-1-yl)-N-(4-methylpyridin-2-yl)benzamide]
≥ 1000 nM: all assays above

COC/C=C/C(=O)N1CCCC[C@H]1c1nc(-c2ccc(C(=O)Nc3cc(C(F)(F)F)ccn3)cc2)c2c(C)nccn12 [Example 30, (S,E)-4-(3-(1-(4-methoxybut-2-enoyl)piperidin-2-yl)-8-methylimidazo[1,5-a]pyrazin-1-yl)-N-(4-(trifluoromethyl)pyridin-2-yl)benzamide]
≥ 1000 nM: all assays above

CC#CC(=O)N1CCC[C@H]1c1nc(-c2ccc(C(=O)Nc3cc(C(F)(F)F)ccn3)cc2)c2c(C)nccn12 [Example 26, (S)-4-(3-(1-but-2-ynoylpyrrolidin-2-yl)-8-methylimidazo[1,5-a]pyrazin-1-yl)-N-(4-(trifluoromethyl)pyridin-2-yl)benzamide]
≥ 1000 nM: all assays above

CC#CC(=O)N1CCC[C@H]1c1nc(-c2ccc(C(=O)Nc3cc(CCC)ccn3)cc2)c2c(C)nccn12 [Example 33, (S)-4-(3-(1-but-2-ynoylpyrrolidin-2-yl)-8-methylimidazo[1,5-a]pyrazin-1-yl)-N-(4-propylpyridin-2-yl)benzamide]
≥ 1000 nM: all assays above

C=CC(=O)N1CCC[C@H]1c1nc(-c2ccc(C(=O)Nc3cc(CC)ccn3)cc2)c2c(C)nccn12 [Example 14, (S)-4-(3-(1-Acryloylpyrrolidin-2-yl)-8-methylimidazo[1,5-a]pyrazin-1-yl)-N-(4-ethylpyridin-2-yl)benzamide]
≥ 1000 nM: all assays above

CC#CC(=O)N1CCC[C@H]1c1nc(-c2ccc(C(=O)Nc3cc(CC)ccn3)cc2)c2c(C)nccn12 [Example 20, (S)-4-(3-(1-but-2-ynoylpyrrolidin-2-yl)-8-methylimidazo[1,5-a]pyrazin-1-yl)-N-(4-ethylpyridin-2-yl)benzamide]
≥ 1000 nM: all assays above

Cc1nccn2c([C@@H]3CCCCN3C(=O)c3ccnc(Cl)n3)nc(-c3ccc(C(=O)Nc4cc(C(F)(F)F)ccn4)cc3)c12 [Example 17, (S)-4-(3-(1-(2-chloropyrimidine-4-carbonyl)piperidin-2-yl)-8-methylimidazo[1,5-a]pyrazin-1-yl)-N-(4-(trifluoromethyl)pyridin-2-yl)benzamide]
≥ 1000 nM: all assays above

CCCc1ccnc(NC(=O)c2ccc(-c3nc([C@H](C)N(C)C(=O)/C=C/COC)n4ccnc(C)c34)cc2)c1 [Example 39, (S,E)-4-(3-(1-(4-methoxy-N-methylbut-2-enamido)ethyl)-8-methylimidazo[1,5-a]pyrazin-1-yl)-N-(4-propylpyridin-2-yl)benzamide]
≥ 1000 nM: all assays above

CC#CC(=O)N1CCC[C@H]1c1nc(-c2ccc(C(=O)Nc3ccccn3)cc2)c2c(C)nccn12 [Example 1, (S)-4-(3-(1-But-2-ynoylpyrrolidin-2-yl)-8-methylimidazo[1,5-a]pyrazin-1-yl)-N-(pyridin-2-yl)benzamide]
≥ 1000 nM: all assays above
